From US20170217976A1, “6-(AMINO ACID)-MORPHINAN DERIVATIVES IN COMBINATION WITH PERMEATION […] FOR USE AS AN ORALLY, […], TRA[…] NASALLY AD[…]” (C[…], priority 2014, published 2017)
pEC50, pKi: −log10 of the molar value. Read-outs that look alike come from different tables or passages of the source.

How the values were obtained:
MOR = molecular target: T1, MOR (Rattus norvegicus, UniProt P33535); experiment: Opioid receptor binding, MOR, rat brain membranes; settings: for pKi: Binding Ki MOR; for Ki: in vitro binding assay, rat brain membranes
T1 construct: from tissue
T1 sequence (P33535 whole entry): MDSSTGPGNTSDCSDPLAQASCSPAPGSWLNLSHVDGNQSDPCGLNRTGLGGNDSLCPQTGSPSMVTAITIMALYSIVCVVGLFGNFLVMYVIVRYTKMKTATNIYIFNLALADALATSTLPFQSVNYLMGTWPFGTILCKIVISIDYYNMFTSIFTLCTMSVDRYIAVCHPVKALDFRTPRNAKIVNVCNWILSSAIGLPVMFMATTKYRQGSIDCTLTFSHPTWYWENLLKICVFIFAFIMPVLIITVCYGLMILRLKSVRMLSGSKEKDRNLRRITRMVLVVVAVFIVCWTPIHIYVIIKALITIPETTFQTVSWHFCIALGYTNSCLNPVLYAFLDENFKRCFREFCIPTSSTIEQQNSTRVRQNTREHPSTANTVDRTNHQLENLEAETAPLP

KOR = molecular target: T2, KOR (Cavia porcellus, UniProt P41144); experiment: Opioid receptor binding, KOR, guinea pig brain membranes; settings: for pKi: Binding Ki KOR; for Ki: in vitro binding assay, guinea pig brain membranes
T2 construct: from tissue
T2 sequence (P41144 whole entry): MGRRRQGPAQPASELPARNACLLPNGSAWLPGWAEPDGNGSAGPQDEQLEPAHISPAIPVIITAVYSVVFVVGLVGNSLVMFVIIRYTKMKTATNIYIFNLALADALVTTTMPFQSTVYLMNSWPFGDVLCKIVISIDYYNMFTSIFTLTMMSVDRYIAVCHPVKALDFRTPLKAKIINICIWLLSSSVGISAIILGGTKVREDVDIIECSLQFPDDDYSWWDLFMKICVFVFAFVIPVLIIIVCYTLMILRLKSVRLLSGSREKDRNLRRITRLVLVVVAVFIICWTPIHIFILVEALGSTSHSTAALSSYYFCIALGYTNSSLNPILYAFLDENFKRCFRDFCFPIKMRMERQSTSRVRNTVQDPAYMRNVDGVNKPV

DOR = molecular target: T3, DOR (Rattus norvegicus, UniProt P33533); experiment: Opioid receptor binding, DOR, rat brain membranes; settings: for pKi: Binding Ki DOR; for Ki: in vitro binding assay, rat brain membranes
T3 construct: from tissue
T3 sequence (P33533 whole entry): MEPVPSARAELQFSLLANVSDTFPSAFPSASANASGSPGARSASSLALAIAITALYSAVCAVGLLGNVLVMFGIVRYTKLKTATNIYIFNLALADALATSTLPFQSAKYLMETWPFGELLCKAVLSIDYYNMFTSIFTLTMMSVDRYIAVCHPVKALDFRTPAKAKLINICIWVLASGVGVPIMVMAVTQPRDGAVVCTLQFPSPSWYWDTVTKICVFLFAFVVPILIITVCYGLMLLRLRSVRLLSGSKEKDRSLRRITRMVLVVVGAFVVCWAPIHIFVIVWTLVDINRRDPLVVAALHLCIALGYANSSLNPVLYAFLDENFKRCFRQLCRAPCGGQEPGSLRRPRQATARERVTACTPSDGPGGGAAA

[1] = molecular target: T4, human MOP expressed in CHO cells (Homo sapiens, UniProt P35372); experiment: [35S]GTPγS binding, antagonism at MOR (Ke against DAMGO); assay type: biochemical; settings: for Kb: Table 1-6, antagonist Ke measured against DAMGO
T4 construct: expressed in transfected cells; host or cells: CHO cells (per the unit's head)
T4 sequence (P35372 whole entry): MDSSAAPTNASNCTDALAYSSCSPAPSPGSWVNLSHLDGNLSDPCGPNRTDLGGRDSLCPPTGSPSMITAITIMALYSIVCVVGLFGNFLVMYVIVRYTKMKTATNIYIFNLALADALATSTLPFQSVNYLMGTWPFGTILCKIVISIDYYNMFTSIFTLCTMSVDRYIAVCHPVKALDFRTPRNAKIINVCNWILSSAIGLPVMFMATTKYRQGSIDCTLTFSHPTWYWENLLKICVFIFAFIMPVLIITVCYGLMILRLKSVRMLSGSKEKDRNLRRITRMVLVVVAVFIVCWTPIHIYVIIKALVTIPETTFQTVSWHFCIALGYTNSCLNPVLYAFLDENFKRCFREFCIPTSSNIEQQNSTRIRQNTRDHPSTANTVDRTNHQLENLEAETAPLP

[2] = Table 1-6, guinea pig brain membranes
[3] = Table 2-6, guinea pig brain membranes
[4] = Table 1-4, guinea pig brain membranes

| Compound | pKi (MOR; Table 2-6, rat brain membranes) | pKi (KOR; [3]) | pKi (DOR; Table 2-6, rat brain membranes) | Ki (MOR; Binding Ki (nM) MOR) | Ki (KOR; Binding Ki (nM) KOR) | Ki (DOR; Binding Ki (nM) DOR) | other results |
| --- | --- | --- | --- | --- | --- | --- | --- |
| O=C(O)C(Cc1ccccc1)NC1CCC2(O)C3Cc4ccc(O)c5c4C2(CCN3CC2CC2)C1O5 (single isomer, unassigned) [Compound 59] | 8.85 | 8.58 | 8.45 | – | – | – | pKi (MOR; Table 1-6, rat brain membranes): 8.85; pKi (KOR; [2]): 8.58; pKi (DOR; Table 1-6, rat brain membranes): 8.45; pEC50 [1]: < 5.00; Kb ([1]; [35S]GTPγS binding, MOR Ke): 0.25 nM |
| CO[C@@]12CC[C@H](NCCC(=O)O)[C@@H]3Oc4c(O)ccc5c4[C@@]31CCN(CC1CC1)[C@@H]2C5 [Compound 63] | 8.87 | 8.11 | 8.20 | – | – | – | pKi (MOR; Table 1-6, rat brain membranes): 8.87; pKi (KOR; [2]): 8.11; pKi (DOR; Table 1-6, rat brain membranes): 8.20; pEC50 [1]: < 5.00; Kb ([1]; [35S]GTPγS binding, MOR Ke): 0.27 nM |
| CO[C@@]12CC[C@H](NCCCC(=O)O)[C@@H]3Oc4c(O)ccc5c4[C@@]31CCN(CC1CC1)[C@@H]2C5 [Compound 65] | 8.92 | 8.27 | 7.97 | – | – | – | pKi (MOR; Table 1-6, rat brain membranes): 8.92; pKi (KOR; [2]): 8.27; pKi (DOR; Table 1-6, rat brain membranes): 7.97; pEC50 [1]: < 5.00; Kb ([1]; read-out: [35S]GTPγS binding, MOR Ke): 0.94 nM |
| CO[C@@]12CC[C@@H](N[C@@H](CCC(=O)OC(C)(C)C)C(=O)OC(C)(C)C)[C@@H]3Oc4c(O)ccc5c4[C@@]31CCN(C)[C@@H]2C5 [20-t-Bu ester] | – | – | – | – | – | – | Ki (MOR; read-out: Binding Ki (nM) MOR): 1.53 nM; Ki (KOR; read-out: Binding Ki (nM) KOR): 81.5 nM; Ki (DOR; read-out: Binding Ki (nM) DOR): 0.19 nM |
| CO[C@@]12CC[C@@H](N[C@@H](CC(C)C)C(=O)O)[C@@H]3Oc4c(O)ccc5c4[C@@]31CCN(C)[C@@H]2C5 [Compound 41] | – | – | – | 1.32 nM | 297 nM | 1.01 nM | pKi (MOR; Table 1-4, rat brain membranes): 8.88; pKi (KOR; [4]): 6.53; pKi (DOR; Table 1-4, rat brain membranes): 9.00 |
| CCO[C@@]12CC[C@@H](NCC(=O)O)[C@@H]3Oc4c(O)ccc5c4[C@@]31CCN(C)[C@@H]2C5 [Compound 6] | – | – | – | 0.95 nM | 102 nM | 5.31 nM | pKi (MOR; Table 1-4, rat brain membranes): 9.02; pKi (KOR; [4]): 6.99; pKi (DOR; Table 1-4, rat brain membranes): 8.27 |
| CO[C@@]12CC[C@@H](N[C@H](C(=O)OC(C)(C)C)C(C)C)[C@@H]3Oc4c(O)ccc5c4[C@@]31CCN(CC1CC1)[C@@H]2C5 [69-tBu ester] | 8.91 | 8.36 | 9.15 | – | – | – | – |
| CO[C@@]12CC[C@@H](N[C@@H](CCSC)C(=O)O)[C@@H]3Oc4c(O)ccc5c4[C@@]31CCN(C)[C@@H]2C5 [Compound 24] | – | – | – | 3.88 nM | 468 nM | 2.4 nM | pKi (MOR; Table 1-4, rat brain membranes): 8.41; pKi (KOR; [4]): 6.33; pKi (DOR; Table 1-4, rat brain membranes): 8.62 |
| CO[C@@]12CC[C@@H](N[C@@H](CC(C)C)C(=O)OC(C)(C)C)[C@@H]3Oc4c(O)ccc5c4[C@@]31CCN(C)[C@@H]2C5 [41-t-Bu ester] | – | – | – | 0.57 nM | 240 nM | 0.42 nM | – |
| CO[C@@]12CC[C@@H](N[C@H](C(=O)OC(C)(C)C)[C@@H](C)O)[C@@H]3Oc4c(O)ccc5c4[C@@]31CCN(C)[C@@H]2C5 [35-t-Bu ester] | – | – | – | 0.51 nM | 102 nM | 0.65 nM | – |
| CO[C@@]12CC[C@H](N[C@@H](CC(C)C)C(=O)OC(C)(C)C)[C@@H]3Oc4c(O)ccc5c4[C@@]31CCN(CC1CC1)[C@@H]2C5 [76-tBu ester] | 9.89 | 9.10 | 10.04 | – | – | – | – |
| CO[C@@]12CC[C@H](N[C@@H](CC(C)C)C(=O)O)[C@@H]3Oc4c(O)ccc5c4[C@@]31CCN(CC1CC1)[C@@H]2C5 [Compound 76] | 9.14 | 8.10 | 8.66 | – | – | – | – |
| CCC(C)C(NC1CCC2(OC)C3Cc4ccc(O)c5c4C2(CCN3C)C1O5)C(=O)OC(C)(C)C (single isomer, unassigned) [43-t-Bu ester] | – | – | – | 2.87 nM | 208 nM | 2.12 nM | – |
| COC12CCC(NC(C(=O)O)C(C)C)C3Oc4c(O)ccc5c4C31CCN(C)C2C5 (single isomer, unassigned) [Compound 30] | – | – | – | 1.7 nM | 202 nM | 1.93 nM | pKi (MOR; Table 1-4, rat brain membranes): 8.77; pKi (KOR; [4]): 6.69; pKi (DOR; Table 1-4, rat brain membranes): 8.71 |
| CO[C@@]12CC[C@H](N[C@@H](CCC(N)=O)C(=O)OC(C)(C)C)[C@@H]3Oc4c(O)ccc5c4[C@@]31CCN(C)[C@@H]2C5 [17-t-Bu ester] | – | – | – | 0.18 nM | 8.97 nM | 0.18 nM | – |
| COC12CCC(NCCC(=O)O)C3Oc4c(O)ccc5c4C31CCN(C)C2C5 (single isomer, unassigned) [Compound 21] | – | – | – | 1.3 nM | 182 nM | 60 nM | pKi (MOR; Table 1-4, rat brain membranes): 8.89; pKi (KOR; [4]): 6.74; pKi (DOR; Table 1-4, rat brain membranes): 7.22 |
| CO[C@@]12CC[C@H](NCC(=O)OC(C)(C)C)[C@@H]3Oc4c(O)ccc5c4[C@@]31CCN(CC1CC1)[C@@H]2C5 [61-tBu ester] | 9.37 | 8.85 | 9.30 | – | – | – | – |
